Data reported in PMC11620482, “Phase 1 drug-drug interaction study to assess the effect of CYP3A4 inhibition and pan-CYP induction on the pharmacokinetics and safety of fosmanogepix in healthy participants” (Antimicrobial Agents and Chemotherapy, 2024).
Marks after values point to notes of the source that are not given here.

Legend:
CYP450 enzymes = conditions: cited from earlier work
[1] = Plasma pharmacokinetics of MGX and FMGX (noncompartmental analysis), phase 1 fixed-sequence DDI study with itraconazole or rifampin; type: in vivo, human; conditions: for FMGX AUC(0-23) / FMGX AUC(0-t) / FMGX Cmax / FMGX Tmax / FMGX AUC(inf) / FMGX CL / FMGX Vz / FMGX t½ / FMGX λz: D1; for FMGX AUC(0-23) / FMGX AUC(0-t) / FMGX Cmax / FMGX AUC(inf) / FMGX CL / FMGX Vz / FMGX t½ / FMGX λz: geometric mean (geometric %CV); for FMGX Tmax: median (range)
Description: In cohort 1, MGX plasma samples were collected at specified time points daily on days 1–4, once every 2 days on days 6–14, daily for 3 days from days 18 to 20, once every 2 days from days 21 to 29, and then on day 31, while itraconazole samples were collected at specified time points on days 19, 25, and 31. […] PK parameters were calculated using noncompartmental analysis from the plasma concentration-time data for MGX and FMGX. Primary PK parameters were maximum observed plasma concentration (Cmax), AUC from time 0 to infinity (AUC0-inf), and AUC up to time t (AUC0-t, where t was the last time point with concentrations above the lower limit of quantitation). […] Secondary PK parameters were time to attain Cmax (Tmax), AUC from time 0 to 23 hours (AUC0-23), terminal elimination half-life after the last dosing on the day (t1/2), clearance (CL), volume of distribution at terminal phase (Vz), and terminal phase rate constant after the last dosing on the day (λz).

[2] = Safety and tolerability (adverse events, laboratory findings), phase 1 DDI study
Description: Participants were also excluded if they used any prescription medication (except female contraception) and any over-the-counter medications/supplements within 14 days and 7 days prior to the first admission, respectively.
In both cohorts, FMGX was administered as a 3-hour IV infusion twice a day (BID, dosing interval: […]). All participants received FMGX on 2 days, once before a washout period (minimum 14 days) and once after the washout. […] The study consisted of a screening phase [days −28 to −1 (admission)], assessment phase (cohort 1: days −1 to 31; cohort 2: days −1 to 34), and follow-up phase (cohort 1: day 38 ± 1; cohort 2: day 41 ± 1). Participants in both cohorts had in-clinic stays for two periods: cohort 1 [days −1 to 4 (morning) and days 17 to 31 (morning)], cohort 2 [days −1 to 4 (morning) and day 23 to 34 (morning)], and at home dosing for two periods: cohort 1 (days 15 to 17) and cohort 2 (days 15 to 23).
Safety was assessed by evaluating the frequency of adverse events (AEs) recorded from the first admission (day −1) until completion of the follow-up visit (day 38 ± 1 in cohort 1; day 41 ± 1 in cohort 2). All AEs were classified per the Medical Dictionary for Regulatory Activities (MedDRA v22.1). The investigator ascertained relatedness to study the drug administration.
An analysis of variance (ANOVA) model was used to analyze the natural log-transformed primary PK parameters while the secondary PK parameters were not subjected to inferential statistical analysis. For each cohort, 18 participants were included to ensure at least 16 completed all assessments, as this was considered adequate to evaluate PK, safety, and tolerability. Thus, a sample size of 36 was considered sufficient to assess primary and secondary objectives. […] The PK analysis set included all participants who received at least one dose of FMGX and had adequate plasma concentration data available for PK analysis.

[3] = test system: Candida, Coccidioides, Cryptococcus, and Aspergillus spp; conditions: cited from earlier work
human CYPs = conditions: concentrations up to 30 µM in vitro; ref data on file; cited from earlier work
[4] = FMGX only 500 mg BID IV, Cohort 1, n = 16
[5] = FMGX only 500 mg BID IV, Cohort 1, n=12
[6] = FMGX only 1000 mg BID IV, Cohort 2, n = 17
[7] = one participant, cohort 1, considered related to itraconazole, days 31 through 70

## Nc1c(-c2cc(Cc3ccc(COc4ccccn4)cc3)no2)ccc[n+]1COP(=O)([O-])O [FMGX, Fosmanogepix]
CYP450 enzymes
  Substrate for CYP450 enzymes: not a substrate
[1]; [4]
  FMGX AUC(0-23): 9945 (16.5) hr×ng/mL
  FMGX AUC(0-t): 9945 (16.5) hr×ng/mL
  FMGX Cmax: 1520 (18.6) ng/mL
  FMGX Tmax: 10.5 (0.50 – 12.0) hr
[1]; [5]
  FMGX AUC(inf): 10191 (18.3)** hr×ng/mL
  FMGX CL: 98128 (18.3)** mL/hr
  FMGX Vz: 53.6 (22.5)** L
  FMGX t½: 0.38 (14.4)** hr
  FMGX λz: 1.83 (14.4)** 1/hr
[1]; [6]
  FMGX AUC(0-23): 18162 (22.3) hr×ng/mL
  FMGX AUC(0-t): 18162 (22.3) hr×ng/mL
  FMGX AUC(inf): 18163 (22.3) hr×ng/mL
  FMGX CL: 110117 (22.3) mL/hr
  FMGX Cmax: 2974 (24.2) ng/mL
  FMGX Vz: 69.4 (30.4) L
  FMGX t½: 0.44 (18.4) hr
  FMGX λz: 1.59 (18.4) 1/hr
  FMGX Tmax: 9.50 (0.50 – 12.1) hr
[1]; both cohorts
  Effect of CYP3A4 inhibition or pan-CYP induction on exposure to FMGX: did not affect exposure
[2]; Cohort 1, FMGX 500 mg
  FMGX-related AEs / all events: 4/43
[2]; Cohort 2, FMGX 1,000 mg
  FMGX-related AEs / all events: 33/145
[2]; FMGX 500 and 1,000 mg, alone or with itraconazole 200 mg or rifampin 600 mg
  Safety and tolerability: safe and well tolerated
[2]; both cohorts, N = 36
  Deaths, serious AEs (SAEs), FMGX-related withdrawals: No deaths, serious AEs (SAEs), or FMGX-related withdrawals
  Participants reporting FMGX-related AEs, n (%): 12 (33.3%)
[2]; of all 188 events, both cohorts
  AEs considered related to FMGX, number of events: 37
[3]
  Efficacy in mouse models of invasive pulmonary and disseminated fungal infections: demonstrated efficacy
Human CYPs
  Reversible or time-dependent inhibition of human CYPs: No reversible or time-dependent inhibition

## CCC(C)n1ncn(-c2ccc(N3CCN(c4ccc(OCC5COC(Cn6cncn6)(c6ccc(Cl)cc6Cl)O5)cc4)CC3)cc2)c1=O (stereo not shown) [ITR, itraconazole, reference compound]
[2]; [7]
  Increase in alanine transaminase (ALT): ~ 8 × ULN
  Increase in aspartate transaminase (AST): ~ 11 × ULN
[2]; one participant, cohort 1, day 31 to day 63
  Increase in lactate dehydrogenase (LDH): ~ 2 × ULN
